Measurements from the supplement of paper PMC10733146.

Legend:
Experiment in all cases: viability relative to DMSO control (fraction); higher = less drug effect (more viable cells)
Details in all cases: 48 h
ONO-4059 = compound: CC#CC(=O)N1CC[C@@H](n2c(=O)n(-c3ccc(Oc4ccccc4)cc3)c3c(N)ncnc32)C1 [ONO-4059]
How it was run: (§1)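 Primary mononuclear tumour cells (Ficoll-isolated from blood or bone marrow, or processed lymph node; fresh or cryopreserved) were plated at 4 × 10^4 cells per well in 384-well plates with pre-plated compounds at five concentrations, one well each. Medium was RPMI-1640 with penicillin/streptomycin, L-glutamine and human serum, at 37 °C and 5% CO2 for 48 h. Viability was read as CellTiter-Glo luminescence relative to the median of 16 inner DMSO wells.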

AZD7762 = compound: NC(=O)Nc1cc(-c2cccc(F)c2)sc1C(=O)N[C@H]1CCCNC1 [AZD7762]
How it was run: as §1

Nilotinib = compound: Cc1cn(-c2cc(NC(=O)c3ccc(C)c(Nc4nccc(-c5cccnc5)n4)c3)cc(C(F)(F)F)c2)cn1 [Nilotinib]
How it was run: as §1

Tozasertib = compound: Cc1cc(Nc2cc(N3CCN(C)CC3)nc(Sc3ccc(NC(=O)C4CC4)cc3)n2)n[nH]1 [Tozasertib]
How it was run: as §1

Imatinib = compound: Cc1ccc(NC(=O)c2ccc(CN3CCN(C)CC3)cc2)cc1Nc1nccc(-c2cccnc2)n1 [Imatinib]
How it was run: as §1

MLN-120B = compound: COc1c(Cl)cc2c([nH]c3cnccc32)c1NC(=O)c1cccnc1C [MLN-120B]
How it was run: as §1

Vorinostat = compound: O=C(CCCCCCC(=O)Nc1ccccc1)NO [Vorinostat]
How it was run: as §1

Vincristine = compound: CC[C@]1(O)C[C@H]2CN(CCc3c([nH]c4ccccc34)[C@@](C(=O)OC)(c3cc4c(cc3OC)N(C=O)[C@H]3[C@@](O)(C(=O)OC)[C@H](OC(C)=O)[C@]5(CC)C=CCN6CC[C@]43[C@@H]65)C2)C1 [Vincristine]
How it was run: as §1

Bortezomib = compound: CC(C)C[C@H](NC(=O)[C@H](Cc1ccccc1)NC(=O)c1cnccn1)B(O)O [Bortezomib]
How it was run: as §1

Vemurafenib = compound: CCCS(=O)(=O)Nc1ccc(F)c(C(=O)c2c[nH]c3ncc(-c4ccc(Cl)cc4)cc23)c1F [Vemurafenib]
How it was run: as §1

AG-221 (Enasidinib) = compound: CC(C)(O)CNc1nc(Nc2ccnc(C(F)(F)F)c2)nc(-c2cccc(C(F)(F)F)n2)n1 [AG-221 (Enasidinib)]
How it was run: as §1

Obatoclax mesylate = compound: COC1=CC(c2cc3ccccc3[nH]2)=N/C1=C\c1[nH]c(C)cc1C [Obatoclax mesylate]
How it was run: as §1

EPZ-5676 = compound: CC(C)N(C[C@H]1O[C@@H](n2cnc3c(N)ncnc32)[C@H](O)[C@@H]1O)[C@H]1C[C@@H](CCc2nc3cc(C(C)(C)C)ccc3[nH]2)C1 [EPZ-5676]
How it was run: as §1

Nelarabine = compound: COc1nc(N)nc2c1ncn2[C@@H]1O[C@H](CO)[C@@H](O)[C@@H]1O [Nelarabine]
How it was run: as §1

## primary AML patient cells (S091)
ONO-4059; 0.0016 µM
  viability: 0.947
ONO-4059; 0.008 µM
  viability: 0.977
ONO-4059; 0.04 µM
  viability: 0.951
ONO-4059; 0.2 µM
  viability: 0.978
ONO-4059; 1 µM
  viability: 1.02
AZD7762; 0.024 µM
  viability: 1.07
AZD7762; 0.12 µM
  viability: 0.837
AZD7762; 0.6 µM
  viability: 0.69
AZD7762; 3 µM
  viability: 0.464
AZD7762; 15 µM
  viability: 0.348
Nilotinib; 0.016 µM
  viability: 1.05
Nilotinib; 0.08 µM
  viability: 1.07
Nilotinib; 0.4 µM
  viability: 1.13
Nilotinib; 2 µM
  viability: 0.991
Nilotinib; 10 µM
  viability: 1.06
Tozasertib; 0.024 µM
  viability: 0.914
Tozasertib; 0.12 µM
  viability: 0.915
Tozasertib; 0.6 µM
  viability: 0.83
Tozasertib; 3 µM
  viability: 0.872
Tozasertib; 15 µM
  viability: 0.237
Imatinib; 0.016 µM
  viability: 1.04
Imatinib; 0.08 µM
  viability: 0.953
Imatinib; 0.4 µM
  viability: 1.05
Imatinib; 10 µM
  viability: 1.24
MLN-120B; 0.024 µM
  viability: 0.881
MLN-120B; 0.12 µM
  viability: 0.865
MLN-120B; 0.6 µM
  viability: 0.902
MLN-120B; 3 µM
  viability: 0.881
MLN-120B; 15 µM
  viability: 0.798
Vorinostat; 0.016 µM
  viability: 0.996
Vorinostat; 0.08 µM
  viability: 0.821
Vorinostat; 0.4 µM
  viability: 0.525
Vorinostat; 2 µM
  viability: 0.185
Vorinostat; 10 µM
  viability: 0.147
Vincristine; 0.016 µM
  viability: 1.24
Vincristine; 0.08 µM
  viability: 1.03
Vincristine; 0.4 µM
  viability: 0.882
Vincristine; 2 µM
  viability: 0.713
Vincristine; 10 µM
  viability: 0.784
Bortezomib; 0.008 µM
  viability: 1.06
Bortezomib; 0.04 µM
  viability: 0.793
Bortezomib; 0.2 µM
  viability: 1.05
Bortezomib; 1 µM
  viability: 0.809
Bortezomib; 5 µM
  viability: 1.06
Vemurafenib; 0.024 µM
  viability: 1
Vemurafenib; 0.12 µM
  viability: 1.66
Vemurafenib; 0.6 µM
  viability: 1.12
Vemurafenib; 3 µM
  viability: 1.4
Vemurafenib; 15 µM
  viability: 1.9
AG-221 (Enasidinib); 0.024 µM
  viability: 0.827
AG-221 (Enasidinib); 0.12 µM
  viability: 1.01
AG-221 (Enasidinib); 0.6 µM
  viability: 0.913
AG-221 (Enasidinib); 3 µM
  viability: 0.895
AG-221 (Enasidinib); 15 µM
  viability: 0.847
Obatoclax mesylate; 0.024 µM
  viability: 1.12
Obatoclax mesylate; 0.12 µM
  viability: 1.1
Obatoclax mesylate; 0.6 µM
  viability: 1.3
Obatoclax mesylate; 3 µM
  viability: 0.371
Obatoclax mesylate; 15 µM
  viability: 0.0996
EPZ-5676; 0.0032 µM
  viability: 0.953
EPZ-5676; 0.016 µM
  viability: 0.965
EPZ-5676; 0.08 µM
  viability: 0.931
EPZ-5676; 0.4 µM
  viability: 1.04
EPZ-5676; 2 µM
  viability: 0.991
Nelarabine; 0.024 µM
  viability: 0.918
Nelarabine; 0.12 µM
  viability: 0.929
Nelarabine; 0.6 µM
  viability: 0.852
Nelarabine; 3 µM
  viability: 0.784
Nelarabine; 15 µM
  viability: 0.656

## primary B-PLL patient cells (S016)
ONO-4059; 0.0016 µM
  viability: 0.701
ONO-4059; 0.008 µM
  viability: 0.554
ONO-4059; 0.04 µM
  viability: 0.553
ONO-4059; 0.2 µM
  viability: 0.491
ONO-4059; 1 µM
  viability: 0.577
AZD7762; 0.024 µM
  viability: 0.508
AZD7762; 0.12 µM
  viability: 0.619
AZD7762; 0.6 µM
  viability: 0.702
AZD7762; 3 µM
  viability: 0.758
AZD7762; 15 µM
  viability: 0.358
Nilotinib; 0.016 µM
  viability: 1.31
Nilotinib; 0.08 µM
  viability: 1.07
Nilotinib; 0.4 µM
  viability: 1.11
Nilotinib; 2 µM
  viability: 1.09
Nilotinib; 10 µM
  viability: 1.16
Tozasertib; 0.024 µM
  viability: 0.856
Tozasertib; 0.12 µM
  viability: 0.74
Tozasertib; 0.6 µM
  viability: 0.688
Tozasertib; 3 µM
  viability: 0.619
Tozasertib; 15 µM
  viability: 0.737
Imatinib; 0.016 µM
  viability: 1.07
Imatinib; 0.08 µM
  viability: 0.938
Imatinib; 0.4 µM
  viability: 1.1
Imatinib; 2 µM
  viability: 0.793
Imatinib; 10 µM
  viability: 0.66
MLN-120B; 0.024 µM
  viability: 0.915
MLN-120B; 0.12 µM
  viability: 0.98
MLN-120B; 0.6 µM
  viability: 0.926
MLN-120B; 3 µM
  viability: 0.887
MLN-120B; 15 µM
  viability: 0.716
Vorinostat; 0.016 µM
  viability: 0.995
Vorinostat; 0.08 µM
  viability: 0.87
Vorinostat; 0.4 µM
  viability: 0.578
Vorinostat; 2 µM
  viability: 0.169
Vorinostat; 10 µM
  viability: 0.0399
Vincristine; 0.016 µM
  viability: 0.225
Vincristine; 0.08 µM
  viability: 0.209
Vincristine; 0.4 µM
  viability: 0.161
Vincristine; 2 µM
  viability: 0.125
Vincristine; 10 µM
  viability: 0.0588
Bortezomib; 0.008 µM
  viability: 0.99
Bortezomib; 0.04 µM
  viability: 1.07
Bortezomib; 0.2 µM
  viability: 1.01
Bortezomib; 1 µM
  viability: 1.19
Bortezomib; 5 µM
  viability: 1.02
Vemurafenib; 0.024 µM
  viability: 0.934
Vemurafenib; 0.12 µM
  viability: 0.948
Vemurafenib; 0.6 µM
  viability: 1.02
Vemurafenib; 3 µM
  viability: 1.01
Vemurafenib; 15 µM
  viability: 0.981
AG-221 (Enasidinib); 0.024 µM
  viability: 0.973
AG-221 (Enasidinib); 0.12 µM
  viability: 0.917
AG-221 (Enasidinib); 0.6 µM
  viability: 1.19
AG-221 (Enasidinib); 3 µM
  viability: 0.892
AG-221 (Enasidinib); 15 µM
  viability: 0.928
Obatoclax mesylate; 0.024 µM
  viability: 1
Obatoclax mesylate; 0.12 µM
  viability: 0.755
Obatoclax mesylate; 0.6 µM
  viability: 0.467
Obatoclax mesylate; 3 µM
  viability: 0.31
Obatoclax mesylate; 15 µM
  viability: 0.0716
EPZ-5676; 0.0032 µM
  viability: 0.991
EPZ-5676; 0.016 µM
  viability: 1.09
EPZ-5676; 0.08 µM
  viability: 0.93
EPZ-5676; 0.4 µM
  viability: 0.971
EPZ-5676; 2 µM
  viability: 1.05
Nelarabine; 0.024 µM
  viability: 0.896
Nelarabine; 0.12 µM
  viability: 1.03
Nelarabine; 0.6 µM
  viability: 0.898
Nelarabine; 3 µM
  viability: 1.04
Nelarabine; 15 µM
  viability: 0.674
